From US11453897B2, “Method for producing aminobenzoic acid or an aminobenzoic acid derivative product” (Covestro Intellectual Property GmbH & Co. KG, priority 2018, dated 2022)

Experiment: Dissolution of calcium ortho-aminobenzoate by salt exchange with ammonium ions (ammonium carbonate stock solution)
Format: physicochemical
Method: 48.0 g of anhydrous calcium chloride was added to 1.00 L of fermentation broth. The pH was adjusted to a value of 7.0 by adding hydrochloric acid. 100 g of ortho-aminobenzoic acid (dissolved in sodium hydroxide solution at pH 7.0) was then added to this mixture by adding 200 mL of oAB STOCK SOLUTION. There was briefly precipitation of calcium ortho-aminobenzoate. The concentration of dissolved ortho-aminobenzoic acid measured in the aqueous phase was 18.0 g/L. The solids fraction of the mixture was filtered off and dried at 80° C. for 48 h. In this way, 110 g of dried solid material was obtained. 20.0 g of that was added to 50.0 mL of AMMONIUM STOCK SOLUTION 1, the mixture was stirred and the concentration of dissolved ortho-aminobenzoic acid was determined. The latter was 146 g/L.
48.0 g of anhydrous calcium chloride was added to 800 mL of water. The pH was adjusted to a value of 7.0 by adding hydrochloric acid. […] The concentration of dissolved ortho-aminobenzoic acid measured in the aqueous phase was 18.0 g/L. The solids fraction of the mixture was filtered off and dried at 80° C. for 48 h. […] 20.0 g of that was added to 25.0 mL of AMMONIUM STOCK SOLUTION 2, the mixture was stirred and the concentration of dissolved ortho-aminobenzoic acid was determined.

calcium ortho-aminobenzoate
concentration of dissolved ortho-aminobenzoic acid after salt exchange (20.0 g dried solid in 25.0 mL ammonium carbonate 210 g/L (Example 2)): 175000 µg/mL
concentration of dissolved ortho-aminobenzoic acid after salt exchange (20.0 g dried solid in 50.0 mL ammonium carbonate 105 g/L (Example 1)): 146000 µg/mL
